Measurements as given in US20260263340A1, “Cosmetic Products and Cleaning Products Stabilized Against Microbial Attack” (Thor GmbH, priority 2023, published 2026).

Experiments:
bacteria mixture 1 = experiment: Repeated-inoculation microbiological stress test of all-purpose cleaner, bacteria mixture 1; type: cell-based; design: key to Bacterial growth after inoculation: 0: No growth; Minimal growth, 1 to 10 colonies visible over the entire streak; 2: Light growth, maximum 100 colonies; Moderate growth, maximum 300 to 400 colonies; Uniform growth, >400 colonies, single colonies still clearly recognizable; 5: Heavy growth, too many colonies to count, but no growth over the entire streak; 6: Full growth, barely any single colonies still apparent, growth over the entire streak; conditions: for Bacterial growth after inoculation: All-purpose cleaner, 6 d
Text: (§1) The tested cleaning composition was an all-purpose cleaner without preservatives and having a pH of 7.7, the skin lotion was a body lotion without preservatives and having a pH of 7.1, and the shampoo was a hair shampoo without preservatives and having a pH of 6.9.
(§2) The cleaning composition was admixed with particular concentrations of guanidine carbonate and guanidine hydrochloride and homogenized. The body lotion and the hair shampoo were each admixed and homogenized with guanidine hydrochloride and with octane-1,2-diol alone or in combination.
(§3) The batches of the products thus obtained were inoculated repeatedly at particular intervals with bacteria mixtures or yeast mixtures that are used as standard for microbiological stress tests of industrial products or cosmetic products (bacteria mixture 1 and 2, yeast mixture 1 and 2).
(§4) The inoculum was added to the respective sample in each inoculation at 2% (v/w) as a fresh cell suspension in a physiological saline solution (0.9% NaCl). The cell count of the inoculum added was 10^8-10^9/ml for the bacteria mixtures, 10^7-10^8/ml for the yeast mixtures, consisting in equal parts of the individual bacteria strains or yeast strains.
(§5) The cell suspension of the bacteria mixtures was produced by growing the individual bacteria at 30° C. for 24 h in liquid culture on a shaker. The medium used to grow the bacteria from bacteria mixtures 1 and 2 was Müller-Hinton liquid medium. The bacteria from bacteria mixture 3 were grown in Müller-Hinton liquid medium that had been adjusted to pH 9.5 to 9.7 with an alkaline buffer solution beforehand. After growing, the individual liquid cultures were centrifuged, and the cells were resuspended in physiological saline solution. In order to adjust the mixtures to a total cell count of 10^8 to 10^9/ml, the individual bacteria suspensions, if necessary, were diluted accordingly before being combined with saline solution. The cell count of the inoculum suspensions was determined in each case by chamber counting.
(§6) In the examples, the samples were inoculated three times at weekly intervals with the respective cell suspensions (2% v/w) and the evolution of the bacteria or yeasts was followed by a semiquantitative evaluation method. After each inoculation, microbial infestation in the samples was evaluated in each case after incubation at 30° C. for 6 to 7 days. For this purpose, an aliquot was taken from each sample after homogenization using a sterile plastic inoculation loop (10 μl) and streaked evenly on agar plates (bacteria mixture 1 and 2 on tryptic soy agar, bacteria mixture 3 on DSMZ 31 alkaline nutrient agar, Sabouraud glucose-agar in the case of yeasts). The streaked agar plates were then incubated at 30° C. for 48 hours (bacteria mixture 1 and 2) or 5 to 7 days (bacteria mixture 3), or at 25° C. for 72 hours (yeast mixtures). After incubation, the bacteria colonies or yeast colonies that have grown on the agar plates were visually evaluated and quantified according to the following scheme:
Inoculation 2% (w/v) with bacteria mixture 1, cell count 10^9/ml

yeast mixture 1 = experiment: Repeated-inoculation microbiological stress test of all-purpose cleaner, yeast mixture 1; type: cell-based; design: key to Yeast growth after inoculation: 0: No growth; Minimal growth, 1 to 10 colonies visible over the entire streak; 2: Light growth, maximum 100 colonies; Moderate growth, maximum 300 to 400 colonies; Uniform growth, >400 colonies, single colonies still clearly recognizable; 5: Heavy growth, too many colonies to count, but no growth over the entire streak; 6: Full growth, barely any single colonies still apparent, growth over the entire streak; conditions: for Yeast growth after inoculation: All-purpose cleaner, 6 d
Text: as §1, §2, §3, §4
The cell suspension of the yeast mixtures was produced by growing the yeast strains on Sabouraud glucose-agar at 25° C. for 48 hours and washing down the cell lawn in each case with physiological saline solution (0.9% NaCl). Further steps for establishment of a cell count of the inoculum suspension of 10^7/ml to 10^8/ml were effected analogously to the production of the bacteria suspensions.
as §6
Inoculation 2% (w/v) with yeast mixture 1, cell count 10^8/ml

bacteria mixture 3 = experiment: Repeated-inoculation microbiological stress test of all-purpose cleaner, bacteria mixture 3 (alkaliphilic bacteria); type: cell-based, Nesterenkonia spec.; design: key to Bacteria growth after inoculation: 0: No growth; Minimal growth, 1 to 10 colonies visible over the entire streak; 2: Light growth, maximum 100 colonies; Moderate growth, maximum 300 to 400 colonies; Uniform growth, >400 colonies, single colonies still clearly recognizable; 5: Heavy growth, too many colonies to count, but no growth over the entire streak; 6: Full growth, barely any single colonies still apparent, growth over the entire streak; conditions: for Bacteria growth after inoculation: All-purpose cleaner, 7 d
Text: as §1, §2
The cleaning composition was additionally inoculated repeatedly at particular intervals with a special inoculum consisting of a mixture of alkaliphilic bacteria (bacteria mixture 3) that had been isolated from a bacterially contaminated cleaning composition having a pH of 9.8.
as §4, §5, §6
Inoculation 2% (w/v) with bacteria mixture 3, cell count 10^9/ml

[1] = +1000 ppm guanidine carbonate (656 ppm guanidine) pH 9.3, 1. inoculation
[2] = +1000 ppm guanidine carbonate (656 ppm guanidine) pH 9.3, 2. inoculation
[3] = +1000 ppm guanidine carbonate (656 ppm guanidine) pH 9.3, 3. inoculation

Q: Which results are given for `N=C(N)N.N=C(N)N.O=C(O)O` [guanidine carbonate]?
A: Bacterial growth after inoculation (bacteria mixture 1; +1000 ppm guanidine carbonate (656 ppm guanidine) pH 9.2, 1. inoculation): 0; Bacterial growth after inoculation (bacteria mixture 1; +1000 ppm guanidine carbonate (656 ppm guanidine) pH 9.2, 2. inoculation): 0; Bacterial growth after inoculation (bacteria mixture 1; +1000 ppm guanidine carbonate (656 ppm guanidine) pH 9.2, 3. inoculation): 5; Bacterial growth after inoculation (bacteria mixture 1; +1500 ppm guanidine carbonate (984 ppm guanidine) pH 9.5, 1. inoculation): 0; Bacterial growth after inoculation (bacteria mixture 1; +1500 ppm guanidine carbonate (984 ppm guanidine) pH 9.5, 2. inoculation): 0; Bacterial growth after inoculation (bacteria mixture 1; +1500 ppm guanidine carbonate (984 ppm guanidine) pH 9.5, 3. inoculation): 0; stability of the all-purpose cleaner to microbial infestation by bacteria (bacteria mixture 1; addition of 659 ppm of guanidine in the form of guanidine carbonate at pH 9.2 or pH 9.5): distinct improvement in stability; Yeast growth after inoculation (yeast mixture 1; [1]): 1 (Minimal growth, 1 to 10 colonies visible over the entire streak); Yeast growth after inoculation (yeast mixture 1; [2]): 1 (Minimal growth, 1 to 10 colonies visible over the entire streak); Yeast growth after inoculation (yeast mixture 1; [3]): 3 (Moderate growth, maximum 300 to 400 colonies); Yeast growth after inoculation (yeast mixture 1; +2500 ppm guanidine carbonate (1640 ppm guanidine) pH 9.9, 1. inoculation): 0; Yeast growth after inoculation (yeast mixture 1; +2500 ppm guanidine carbonate (1640 ppm guanidine) pH 9.9, 2. inoculation): 0; Yeast growth after inoculation (yeast mixture 1; +2500 ppm guanidine carbonate (1640 ppm guanidine) pH 9.9, 3. inoculation): 0; Yeast growth after inoculation (yeast mixture 1; +5000 ppm guanidine carbonate (3280 ppm guanidine) pH 10.4, 1. inoculation): 0; Yeast growth after inoculation (yeast mixture 1; +5000 ppm guanidine carbonate (3280 ppm guanidine) pH 10.4, 2. inoculation): 0; Yeast growth after inoculation (yeast mixture 1; +5000 ppm guanidine carbonate (3280 ppm guanidine) pH 10.4, 3. inoculation): 0; stability of the all-purpose cleaner to microbial infestation by yeasts (yeast mixture 1; addition of 659 ppm of guanidine in the form of guanidine carbonate at pH 9.9): distinct improvement in stability; Bacteria growth after inoculation (bacteria mixture 3; +500 ppm guanidine carbonate (328 ppm guanidine) pH 9.1, 1. inoculation): 0; Bacteria growth after inoculation (bacteria mixture 3; +500 ppm guanidine carbonate (328 ppm guanidine) pH 9.1, 2. inoculation): 2 (Light growth, maximum 100 colonies); Bacteria growth after inoculation (bacteria mixture 3; +500 ppm guanidine carbonate (328 ppm guanidine) pH 9.1, 3. inoculation): 2 (Light growth, maximum 100 colonies); Bacteria growth after inoculation (bacteria mixture 3; [1]): 0; Bacteria growth after inoculation (bacteria mixture 3; [2]): 0; Bacteria growth after inoculation (bacteria mixture 3; [3]): 1 (Minimal growth, 1 to 10 colonies visible over the entire streak); Bacteria growth after inoculation (bacteria mixture 3; +2500 ppm guanidine carbonate (1640 ppm guanidine) pH 10.0, 1. inoculation): 0; Bacteria growth after inoculation (bacteria mixture 3; +2500 ppm guanidine carbonate (1640 ppm guanidine) pH 10.0, 2. inoculation): 0; Bacteria growth after inoculation (bacteria mixture 3; +2500 ppm guanidine carbonate (1640 ppm guanidine) pH 10.0, 3. inoculation): 0; Bacteria growth after inoculation (bacteria mixture 3; +5000 ppm guanidine carbonate (3280 ppm guanidine) pH 10.5, 1. inoculation): 0; Bacteria growth after inoculation (bacteria mixture 3; +5000 ppm guanidine carbonate (3280 ppm guanidine) pH 10.5, 2. inoculation): 0; Bacteria growth after inoculation (bacteria mixture 3; +5000 ppm guanidine carbonate (3280 ppm guanidine) pH 10.5, 3. inoculation): 0; stability of the all-purpose cleaner to microbial infestation by bacteria (bacteria mixture 3; addition of 330 ppm of guanidine in the form of guanidine carbonate at pH 9.1): distinct improvement in stability
